The results in this text go back to paper PMC8130605 (RSC Medicinal Chemistry, 2021).

One data set relates to THP1 cells. Nature of the data set: THP1 host cell cytotoxicity. The format is cell-based.
Data set [1] can be described thus: Mouse pharmacokinetic study. Type of data set: in vivo. Particulars: after oral dosing 50 mg kg^−1.

The structures appear in SMILES notation.

As for `CC(C)(C)Nc1c(-c2ccccn2)nc2c(OCc3ccccc3)cccn12` [Compound 2], the “background cell cytotoxicity (in words)” value in the data set on THP1 cells was “no background cell cytotoxicity”. For the compound `Cc1ccc2nc(-c3ccc(N(C)C)cc3)c(NC3CCCCC3)n2c1` [Compound 8], the “background cell cytotoxicity (in words)” value in the data set with THP1 cells is recorded as “no background cell cytotoxicity”.

Take `COc1ccn2c(Nc3cc(F)cc(F)c3)c(-c3ccccn3)nc2c1` [Compound 23]: in data set [1], the “compound in the plasma after 24 hours” value is on record as “no compound observed”.
